In US12653830B2, “Substituted imidazoquinoxaline compounds and uses thereof” (Impact Therapeutics (Shanghai), Inc, priority 2019, dated 2026):
Like-named read-outs stand apart in the source and are kept apart here.

What was measured:
[1] = system: human breast cancer cell MDA-MB-468; test: MTT proliferation assay, MDA-MB-468; type: cell-based; conditions: Homo sapiens, MDA-MB-468, 168 h, 7 days, single agent, read-out: IC50, inhibition of proliferation of MDA-MB-468
Procedure: Determination of the Inhibitory Effect of the Compound of Example 2 and its Analogues on the Proliferation of Human Breast Cancer Cell MDA-MB-468 Using MTT Assay
The human breast cancer cells MDA-MB-468 were cultured in RPMI 1640 medium with 10% FBS and used at 90% confluence. The MDA-IVB-468 cells were digested with trypsinase and centrifuged at 800 rpm for 5 minutes. The supernatant was discarded and the cell pellets were resuspended with fresh medium and counted. Cells were seeded to 96-well cell culture plates with appropriate cell density and incubated overnight at 37° C., 5% CO2. […] 5 μL of solutions of each concentration was added to 120 μL of medium (diluted by 25 times) and mixed by shaking. The culture medium of cells cultured overnight was discarded and replaced with 195 μL/well of fresh medium (RPMI 1640+5% FBS) and 5 μL/well of diluted medium containing the test compound of corresponding concentrations (the final concentration of DMSO was 1%), and the culture plate was then returned to 5% CO2 incubator at 37° C. for 7 days (on the fourth day, dressing was changed once and culture was continued). On the day of experiment, culture medium was discarded and replaced with 100 μL/well of fresh serum-free DMEM medium containing MTT (0.5 mg/mL), and the culture was continued. After 4 hours, medium was discarded and replaced with 100 μL/well of DMSO, the plates were shaken for 10 minutes in darkness and the absorbance was measured at the wavelengths of 552 and 693 nm using a multi-function plate reader. Graph Pad Prism 6.0 was used to analyze the data. The inhibitory effects of compounds on cell proliferation were plotted based on cell viability vs. the logarithm of compound concentration. Cell viability %=(ODcompound−ODbackground)/(ODDMSO−ODbackground)×100.
Table 4 summarizes the inhibitory effect data (IC50) of some compounds on the proliferation of human breast cancer cell MDA-MB-468.

[2] = system: human colon cancer cell SW620; test: MTT proliferation assay in combination with CPT-11, SW620; type: cell-based; conditions: medium containing 205 nM CPT-11, 5 days, read-out: IC50, inhibition of proliferation of SW620 combined with CPT-11
Procedure: Determination of the Inhibitory Effect of the Compound of Example 2 and its Analogues in Combination with CPT-11 on the Proliferation of Human Colon Cancer Cell SW620 Using MTT Assay
The human colon cancer cells SW620 were cultured in RPMI 1640 medium with 10% FBS and used at about 90% confluence for experiments. The SW620 cells were digested with trypsinase and centrifuged at 800 rpm for 5 minutes. The supernatant was discarded and the cell pellets were resuspended with fresh medium (RPMI 1640+10% FBS). The cells were seeded into 96-well cell culture plates with appropriate cell density and incubated at 37° C. overnight in a 5% CO2 incubator. […] The first concentration was 1 μM or 0.333 μM, the last concentration was DMSO negative control (0 μM). 5 μL of solutions of each concentration was added to 120 μL of medium (a 25 times dilution) and mixed by shaking. The cells were cultured overnight and the culture medium was replaced with 195 μL/well of fresh medium containing 205 nM CPT-11 and 5 μL/well of medium containing the test compound (the final concentration of DMSO was 1%). The culture plates were returned to incubator and cultured at 37° C., 5% CO2 for 5 days. At the day of experiment, medium was discarded and replaced with 100 μL of fresh serum-free DMEM medium containing MTT (0.5 mg/mL), and the culture was continued. 4 hours later, the medium was discarded and replaced with 100 μL/well of DMSO, the plate was shaken for 10 minutes in dark and the absorbance was measured at the wavelengths of 552 and 690 nm using a multi-function plate reader. Data were analyzed by Graph Pad Prism 6.0. The inhibitory effects of compounds on cell proliferation were plotted based on cell viability vs. the logarithm of compound concentration. Cell viability %=(ODcompound−ODbackground)/(ODDMSO−ODbackground)×100.
Table 3 summarizes the inhibitory effect data (IC50) of some compounds combined with CPT-11 on the proliferation of human colon cancer cell SW620.

ATM kinase = molecular target: T1, ATM kinase (Homo sapiens, UniProt Q13315); test: In vitro ATM kinase assay (Cisbio HTRF, p53 substrate); type: biochemical; conditions: 30 μM ATP; for inhibition at 0.0001 µM: Conc. 0.1 nM; for inhibition at 0.0001 µM / inhibition at 0.001 µM / inhibition at 0.01 µM: read-out: Inh % (inhibitory effect on ATM kinase activity); for inhibition at 0.001 µM: Conc. 1 nM; for inhibition at 0.01 µM: Conc. 10 nM
T1 construct: purchased Eurofins 14-933
Procedure: Determination of the Inhibitory Effect In Vitro of the Compound of Example 2 and its Analogues on ATM Using In Vitro ATM Kinase Assay
ATM enzymatic activity was measured using Cisbio's HTRF reagent in a 384-well plate (Greiner, #784075). […] The mixtures were centrifuged at 1000 rpm for 1 minute, and reacted in dark for 30 minutes at room temperature. Then, 5 μL of EDTA termination solution (250 mm) was added to terminate the reaction. After 5 μL of detection mixture (Anti-phospho-p53 (ser15)-K (Cisbio, #61P08KAE, 0.084 ng/μL) and Anti-GST-d2 (Cisbio, #61GSTDLA, 5.00 ng/μL)) was finally added to each well, the mixtures were cultured at room temperature over night, and the fluorescence values at 665 nm and 615 nm were measured on Envision 2104. The final concentration of each reagent of the experiment was as follows: 12.5 mM HEPES (pH8.0), 0.5% glycerol, 0.005% Brij-35, 0.625 mM DTT, 0.0125% BSA, 15 nM p53, 0.25 ng/μL ATM, 30 μM ATP, 2.5 mM Mg(AcO)2, 2.5 mM MnCl2, 62.5 mM EDTA, 0.021 ng/μL Anti-phospho-p53, 1.25 ng/μL Anti-GST-d2.
Relative fluorescence ratio was calculated: Ratio665 nm/615 nm−Ratiobackground, and inhibition rate %=(1−(relative fluorescence ratio of test compound well−relative fluorescence ratio of positive control well)/(relative fluorescence ratio of negative control well−relative fluorescence ratio of positive control well))×100 was calculated. Data were analyzed using GraphPad Prism6.0 and fitted using the curve equation: Y=Bottom+(Top−Bottom)/(1+10^((Log IC50−X)*HillSlope)), and IC50 values were calculated.

T1 sequence (Q13315 whole entry): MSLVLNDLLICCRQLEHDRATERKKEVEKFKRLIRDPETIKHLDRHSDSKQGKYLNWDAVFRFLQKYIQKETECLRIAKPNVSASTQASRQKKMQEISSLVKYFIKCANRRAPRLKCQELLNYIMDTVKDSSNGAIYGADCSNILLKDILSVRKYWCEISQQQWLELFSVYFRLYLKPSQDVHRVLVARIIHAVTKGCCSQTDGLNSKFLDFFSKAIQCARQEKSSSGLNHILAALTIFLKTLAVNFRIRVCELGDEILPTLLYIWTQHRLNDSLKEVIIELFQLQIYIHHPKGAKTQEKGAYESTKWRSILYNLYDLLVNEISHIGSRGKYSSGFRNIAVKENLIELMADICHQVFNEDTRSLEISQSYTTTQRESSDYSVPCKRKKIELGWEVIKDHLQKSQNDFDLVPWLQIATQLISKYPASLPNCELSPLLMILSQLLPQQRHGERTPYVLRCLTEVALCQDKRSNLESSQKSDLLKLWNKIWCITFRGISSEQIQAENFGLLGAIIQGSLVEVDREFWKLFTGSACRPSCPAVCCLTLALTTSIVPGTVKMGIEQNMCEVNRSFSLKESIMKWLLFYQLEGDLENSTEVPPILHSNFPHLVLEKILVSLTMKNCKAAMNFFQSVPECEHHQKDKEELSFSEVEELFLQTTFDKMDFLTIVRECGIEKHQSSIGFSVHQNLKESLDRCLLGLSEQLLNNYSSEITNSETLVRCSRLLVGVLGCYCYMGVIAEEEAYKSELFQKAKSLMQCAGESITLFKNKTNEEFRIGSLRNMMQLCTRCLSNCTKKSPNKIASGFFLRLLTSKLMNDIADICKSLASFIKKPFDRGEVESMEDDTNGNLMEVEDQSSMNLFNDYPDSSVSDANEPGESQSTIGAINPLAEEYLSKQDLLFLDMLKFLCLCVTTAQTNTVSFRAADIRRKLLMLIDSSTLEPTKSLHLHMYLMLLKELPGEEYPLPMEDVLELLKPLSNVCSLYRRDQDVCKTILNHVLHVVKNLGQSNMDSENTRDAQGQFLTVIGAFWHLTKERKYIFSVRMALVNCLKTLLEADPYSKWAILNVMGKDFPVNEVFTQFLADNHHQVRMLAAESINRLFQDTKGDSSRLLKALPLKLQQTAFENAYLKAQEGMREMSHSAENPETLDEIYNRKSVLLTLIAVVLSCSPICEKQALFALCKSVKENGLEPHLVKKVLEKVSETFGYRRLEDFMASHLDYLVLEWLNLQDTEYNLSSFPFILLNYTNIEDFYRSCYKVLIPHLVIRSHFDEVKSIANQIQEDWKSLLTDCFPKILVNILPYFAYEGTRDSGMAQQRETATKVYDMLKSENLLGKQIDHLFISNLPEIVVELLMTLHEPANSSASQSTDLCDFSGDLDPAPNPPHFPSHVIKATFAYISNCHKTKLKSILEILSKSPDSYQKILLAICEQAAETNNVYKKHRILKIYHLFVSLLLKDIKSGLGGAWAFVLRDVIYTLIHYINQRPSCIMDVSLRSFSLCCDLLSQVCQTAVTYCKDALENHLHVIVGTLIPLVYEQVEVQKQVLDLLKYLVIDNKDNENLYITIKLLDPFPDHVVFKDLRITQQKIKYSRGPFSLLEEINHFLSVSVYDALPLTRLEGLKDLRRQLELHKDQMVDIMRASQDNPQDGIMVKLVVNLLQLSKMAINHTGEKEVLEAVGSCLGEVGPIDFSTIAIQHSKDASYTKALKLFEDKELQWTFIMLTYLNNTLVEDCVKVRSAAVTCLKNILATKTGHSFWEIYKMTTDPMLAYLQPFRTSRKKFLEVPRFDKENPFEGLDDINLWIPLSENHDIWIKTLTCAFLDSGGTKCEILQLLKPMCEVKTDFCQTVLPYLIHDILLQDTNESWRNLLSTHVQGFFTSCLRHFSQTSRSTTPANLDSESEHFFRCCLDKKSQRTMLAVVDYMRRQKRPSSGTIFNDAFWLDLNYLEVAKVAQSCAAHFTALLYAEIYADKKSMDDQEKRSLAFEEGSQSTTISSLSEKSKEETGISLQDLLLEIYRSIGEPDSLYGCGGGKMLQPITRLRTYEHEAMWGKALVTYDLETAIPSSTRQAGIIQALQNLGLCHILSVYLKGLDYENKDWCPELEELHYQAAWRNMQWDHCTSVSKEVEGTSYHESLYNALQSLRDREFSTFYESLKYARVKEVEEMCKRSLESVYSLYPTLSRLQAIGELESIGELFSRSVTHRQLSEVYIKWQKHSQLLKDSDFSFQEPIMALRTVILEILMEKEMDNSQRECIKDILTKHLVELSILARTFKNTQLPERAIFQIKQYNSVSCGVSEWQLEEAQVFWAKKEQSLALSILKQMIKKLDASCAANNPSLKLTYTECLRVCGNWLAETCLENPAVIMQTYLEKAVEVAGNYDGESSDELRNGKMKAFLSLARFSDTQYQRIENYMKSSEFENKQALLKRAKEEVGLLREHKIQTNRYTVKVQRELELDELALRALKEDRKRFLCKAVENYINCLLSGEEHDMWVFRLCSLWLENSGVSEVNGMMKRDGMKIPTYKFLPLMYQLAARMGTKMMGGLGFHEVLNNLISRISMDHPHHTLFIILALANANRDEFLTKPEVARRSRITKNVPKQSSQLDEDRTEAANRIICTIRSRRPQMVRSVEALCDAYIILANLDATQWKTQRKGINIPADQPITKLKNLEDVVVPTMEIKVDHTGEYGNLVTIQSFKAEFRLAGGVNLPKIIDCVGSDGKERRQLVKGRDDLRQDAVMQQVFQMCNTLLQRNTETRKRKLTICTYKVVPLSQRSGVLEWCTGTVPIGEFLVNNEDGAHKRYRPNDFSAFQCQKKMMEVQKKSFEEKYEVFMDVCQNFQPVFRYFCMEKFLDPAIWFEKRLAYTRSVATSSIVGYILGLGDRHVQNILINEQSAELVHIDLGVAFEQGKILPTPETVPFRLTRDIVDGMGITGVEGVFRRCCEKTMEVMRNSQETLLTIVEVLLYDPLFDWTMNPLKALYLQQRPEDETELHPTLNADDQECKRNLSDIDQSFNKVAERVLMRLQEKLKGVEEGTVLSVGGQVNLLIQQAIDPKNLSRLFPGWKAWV

| SMILES | IC50 [1] [nM] | IC50 [2] [nM] | inhibition at 0.0001 µM (ATM kinase) [%] | inhibition at 0.001 µM (ATM kinase) [%] | inhibition at 0.01 µM (ATM kinase) [%] | IC50 ([2]; Homo sapiens, SW-620, 120 h) [nM] | IC50 (ATM kinase) [nM] |
| --- | --- | --- | --- | --- | --- | --- | --- |
| Cc1nc(C2CCOCC2)n2c1cnc1ccc(-c3ccc(N4CCC(N(C)C)CC4)c(Cl)c3)cc12 [Example 7, N,N-dimethyl-1-(2-chloro-4-(3-methyl-1-(tetrahydro-2H-pyran-4-yl)imidazo[1,5-a]quinoxalin-8-yl)phenyl)piperidin-4-amine] | 22.6 | 25.9 | 18 | 86 | 96 |  |  |
| Cc1nc(C2CCOCC2)n2c1cnc1ccc(-c3ccc(N4CCC(N(C)C)CC4)c(C(F)(F)F)c3)cc12 [Example 8] | 24.8 | 24.1 | 27 | 94 | 99 |  |  |
| Cc1nc(C2CCOCC2)n2c1cnc1ccc(-c3ccc(N4CCC(N)CC4)c(C(F)(F)F)c3)cc12 [Example 9, 1-(4-(3-methyl-1-(tetrahydro-2H-pyran-4-yl)imidazo[1,5-a]quinoxalin-8-yl)-2-(trifluoromethyl)phenyl)piperidin-4-amine] | 23.1 | 24 | 28 | 96 | 99 |  |  |
| CNC1CCN(c2ccc(-c3ccc4ncc5c(C)nc(C6CCOCC6)n5c4c3)cc2C(F)(F)F)CC1 [Example 10, N-methyl-1-(4-(3-methyl-1-(tetrahydro-2H-pyran-4-yl)imidazo[1,5-a]quinoxalin-8-yl)-2-(trifluoromethyl)phenyl)piperidin-4-amine] | 16.4 | 16.7 | 13 | 74 | 99 |  |  |
| CCNC1CCN(c2ccc(-c3ccc4ncc5c(C)nc(C6CCOCC6)n5c4c3)cc2C(F)(F)F)CC1 [Example 11, N-ethyl-1-(4-(3-methyl-1-(tetrahydro-2H-pyran-4-yl)imidazo[1,5-a]quinoxalin-8-yl)-2-(trifluoromethyl)phenyl)piperidin-4-amine] | 31.1 | 30 | 11 | 78 | 97 |  |  |
| Cc1nc(C2CCOCC2)n2c1cnc1ccc(-c3ccc(OCCCN4CCCCC4)nc3)cc12 [Example 12, 3-methyl-8-(6-(3-(piperidin-1yl)propoxy)pyridin-3yl)-1-(tetrahydro-2H-pyran-4-yl)imidazo[1,5-a]quinoxaline] | 14.4 | 15.7 | 40 | 91 | 98 |  |  |
| Cc1nn(C)cc1-c1ccc2ncc3c(C)nc(C4CCOCC4)n3c2c1 [Example 13, 8-(1,3-dimethyl-1H-pyrazol-4-yl)-3-methyl-1-(tetrahydro-2H-pyran-4-yl)imidazo[1,5-a]quinoxaline] | 782 | > 1000 |  |  | 15 |  |  |
| Cc1nc(N2CCOCC2)n2c1cnc1ccc(-c3ccc(OCCCN(C)C)nc3)cc12 [Example 14, N,N-dimethyl-3-((5-(3-methyl-1-morpholinylimidazo[1,5-a]quinoxalin-8-yl)pyridin-2-yl)oxy)propan-1-amine] | 26 | 39.7 |  |  | 93 |  |  |
| Cc1nc(N2C[C@@H](C)O[C@@H](C)C2)n2c1cnc1ccc(-c3ccc(OCCCN(C)C)nc3)cc12 [Example 15, N,N-dimethyl-3-((5-(1-((2S,6R)-2,6-dimethylmorpholino)-3-methylimidazo[1,5-a]quinoxalin-8-yl)pyridin-2-yl)oxy)propan-1-amine] | 7.98 |  |  |  |  | 9.3 | 0.31 |
| Cc1nc(N2CCCCC2)n2c1cnc1ccc(-c3ccc(OCCCN(C)C)nc3)cc12 [Example 16, N,N-dimethyl-3-((5-(3-methyl-1-(piperidin-1-yl)imidazo[1,5-a]quinoxalin-8-yl)pyridin-2-yl)oxy)propan-1-amine] | 10.6 | 8.2 | 71 | 89 | 97 |  |  |
| Cc1nc(N2CCN(C)CC2)n2c1cnc1ccc(-c3ccc(OCCCN(C)C)nc3)cc12 [Example 17, N,N-dimethyl-3-((5-(3-methyl-1-(4-methylpiperazin-1-yl)imidazo[1,5-a]quinoxalin-8-yl)pyridin-2-yl)oxy)propan-1-amine] | 20.9 | 27.4 | 9 | 55 | 91 |  |  |
| Cc1nc(N2C[C@@H](C)N(C)[C@@H](C)C2)n2c1cnc1ccc(-c3ccc(OCCCN(C)C)nc3)cc12 [Example 18, N,N-dimethyl-3-((5-(3-methyl-1-((3S,5R)-3,4,5-trimethylpiperazin-1-yl)imidazo[1,5-a]quinoxalin-8-yl)pyridin-2-yl)oxy)propan-1-amine] | 6.4 | 6.5 | 30 | 87 | 98 |  |  |
| Cc1nc(C(C)C)n2c1cnc1ccc(-c3ccc(OCCCN(C)C)nc3)cc12 [Example 19, N,N-dimethyl-3-((5-(1-isopropyl-3-methylimidazo[1,5-a]quinoxalin-8-yl)pyridin-2-yl)oxy)propan-1-amine] | 11.4 | 17.6 |  | 88 |  |  |  |
| Cc1nc(C(C)C)n2c1cnc1ccc(-c3ccc(OCCCN(C)C)c(F)c3)cc12 [Example 20, N,N-dimethyl-3-(2-fluoro-4-(1-isopropyl-3-methylimidazo[1,5-a]quinoxalin-8-yl)phenoxy)propan-1-amine] | 21.3 | 35.9 |  | 82 |  |  |  |
| Cc1nc(C(C)C)n2c1cnc1ccc(-c3ccc(OCCCN(C)C)c(C(F)(F)F)c3)cc12 [Example 21, N,N-dimethyl-3-(4-(1-isopropyl-3-methylimidazo[1,5-a]quinoxalin-8-yl)-2-(trifluoromethyl)phenoxy)propan-1-amine] | 16.4 | 29.6 |  | 67 |  |  |  |
